Results published in publication PMC10747602, “Dose Response, Dosimetric, and Metabolic Evaluations of Replacement PFAS Perfluoro-(2,5,8-trimethyl-3,6,9-trioxadodecanoic) Acid (HFPO-TeA)” (Toxics, 2023).
Where “and” joins values, the source holds several entries; their conditions need not be identical. Equal entries are not always repeated.

Experiment: Five-day oral gavage exposure: body weight, liver weights, clinical observations
Format: in vivo, Sprague Dawley rats
Conditions: for Body Weight Change / Liver Weight / Relative Liver Weight / Absolute Liver Weight / Body Weight Gain: 5 days
Procedure: The in vivo exposure study was performed under a contract to Jacobs Technology, Inc. (Dallas, TX, USA; EP-C-15-008) and BioSpyder Technologies, Inc. (Carlsbad, CA, USA; 68HE0B20P0250). Animal handling was subcontracted out and performed by Integrated Laboratory Systems (ILS, Morrisville, NC, USA). All procedures followed Animal Welfare Act Regulations 9 CFR 1A, 1–4, and animals were handled and treated according to the Guide for the Care and Use of Laboratory Animals. Male and female Sprague Dawley rats (n = 36/sex) were purchased from Charles River Laboratory (Raleigh, NC, USA) and allowed to acclimate for 7–10 days before initial dosing. Animals were assigned to groups using analysis of variance (ANOVA) to ensure the mean body weights of the groups were not statistically different. Same-sex pairs were housed in polycarbonate cages (23 cm × 44 cm × 21 cm) with hardwood bedding (Northeastern Products Corp., Warrensburg, NY, USA), changed twice per week. Rats were kept in rooms maintained between 20.0 and 25.0 °C and 30.0 and 70.0% humidity while exposed to a 12 h light–dark cycle. Certified Purina Pico Chow No. 5002 (Ralston Purina Co., St. Louis, MO, USA) and reverse osmosis (RO)-treated tap water (City of Durham, NC, USA) were available ad libitum. Rats were 8–10 weeks old at the time of dosing and weighed between 228 and 302 g (males) and 208 and 232 g (females).
Male and female rats (n = 4/sex, dose, and time point) were dosed by gavage (5 mL/kg bodyweight) once daily for five days with water (vehicle control) or HFPO-TeA at eight half-log dose levels ranging from 0.3 to 335.2 mg/kg/day (i.e., 0.3, 0.9, 2.3, 6.3, 17, 45.9, 124, and 335.2). The results reported here are part of a larger study, for which the main purpose was to use benchmark dose–response modeling of transcriptomic data to identify a gene set basis for the point of departure (POD).
Clinical observations were performed prior to first administration and at termination. Moribundity and mortality were assessed twice daily on weekdays and once daily on weekends. Animals found moribund were euthanized by carbon dioxide inhalation and death was confirmed by cervical dislocation.
Whole blood was collected from the retro-orbital plexus under isoflurane anesthesia 2 h following the first dose and by cardiac puncture 24 h after the last dosage. Blood was stored in anticoagulant potassium ethylenediaminetetraacetic acid (K3EDTA)-coated vacutainers, and then processed to isolate plasma via centrifugation. Animals were euthanized via carbon dioxide asphyxiation and subsequent exsanguination. Liver was collected, weighed, cubed, and divided into three aliquots. One aliquot of tissue was flash-frozen in liquid nitrogen and stored at −80 °C for analytical chemistry analyses. The remaining two aliquots were placed in RNALater and frozen for use in the companion transcriptomic study. Liver and plasma samples were received at the U.S. EPA Center for Computational Toxicology and Exposure, Advanced Analytical Chemistry Methods Branch in Research Triangle Park, North Carolina, USA, and stored at −80 °C prior to extraction.

[1] = 0.3 mg/kg/day, F, individual rats
[2] = 0.3 mg/kg/day, F, mean ± SD n=4
[3] = 0.3 mg/kg/day, M, individual rats
[4] = 0.3 mg/kg/day, M, mean ± SD n=4
[5] = 0.9 mg/kg/day, F, individual rats
[6] = 0.9 mg/kg/day, F, mean ± SD n=4
[7] = 0.9 mg/kg/day, M, individual rats
[8] = 0.9 mg/kg/day, M, mean ± SD n=4
[9] = 2.3 mg/kg/day, F, individual rats
[10] = 2.3 mg/kg/day, F, mean ± SD n=4
[11] = 2.3 mg/kg/day, M, individual rats
[12] = 2.3 mg/kg/day, M, mean ± SD n=4
[13] = 6.3 mg/kg/day, F, individual rats
[14] = 6.3 mg/kg/day, F, mean ± SD n=4
[15] = 6.3 mg/kg/day, M, individual rats
[16] = 6.3 mg/kg/day, M, mean ± SD n=4
[17] = 17 mg/kg/day, F, individual rats
[18] = 17 mg/kg/day, M, individual rats

**Q.** Which “Body Weight Change” value [1] does the source give for `O=C(O)C(F)(OC(F)(F)C(F)(OC(F)(F)C(F)(OC(F)(F)C(F)(F)C(F)(F)F)C(F)(F)F)C(F)(F)F)C(F)(F)F` (centres unmarked) [HFPO-TeA, perfluoro-(2,5,8-trimethyl-3,6,9-trioxadodecanoic) acid] here?
**A.** The value was 11.3 g and 8.5 g and 1.0 g and 5.1 g.

**Q.** What about the “Liver Weight” value [1] of the same molecule?
**A.** The value was 10.2929 g and 10.0087 g and 10.5040 g and 10.1866 g.

**Q.** And the “Relative Liver Weight” value [1]?
**A.** The value was 4.458 g% and 4.431 g% and 4.573 g% and 4.489 g%.

**Q.** What about the “Absolute Liver Weight” value [2] of the same molecule?
**A.** The value was 10.25 ± 0.2070 g.

**Q.** What about the “Body Weight Gain” value [2] of the same molecule?
**A.** The value was 6.5 ± 4.4 g.

**Q.** What about the “Relative Liver Weight” value [2] of the same molecule?
**A.** The value was 4.488 ± 0.062 g%.

**Q.** What about the “Body Weight Change” value [3] of the same molecule?
**A.** The value was 28.2 g and 40.1 g and 48.5 g and 32.0 g.

**Q.** And the “Liver Weight” value [3]?
**A.** The value was 13.9494 g and 16.3796 g and 15.4580 g and 15.2495 g.

**Q.** And the “Relative Liver Weight” value [3]?
**A.** Its value is 4.953 g% and 4.616 g% and 4.795 g% and 4.445 g%.

**Q.** And the “Absolute Liver Weight” value [4]?
**A.** The value was 15.2591 ± 1.0017 g.

**Q.** And the “Body Weight Gain” value [4]?
**A.** The value was 37.2 ± 9.0 g.

**Q.** What about the “Relative Liver Weight” value [4] of the same molecule?
**A.** The value was 4.702 ± 0.220 g%.

**Q.** And the “Body Weight Change” value [5]?
**A.** The value was 8.6 g and 18.4 g and 10.4 g and 11.3 g.

**Q.** And the “Liver Weight” value [5]?
**A.** Its value is 12.6621 g and 11.3910 g and 11.9531 g and 11.5466 g.

**Q.** What about the “Relative Liver Weight” value [5] of the same molecule?
**A.** The value was 5.327 g% and 5.016 g% and 5.192 g% and 4.809 g%.

**Q.** What about the “Absolute Liver Weight” value [6] of the same molecule?
**A.** The value was 11.8882 ± 0.5678 g.

**Q.** And the “Body Weight Gain” value [6]?
**A.** Its value is 12.2 ± 4.3 g.

**Q.** And the “Relative Liver Weight” value [6]?
**A.** The value was 5.086 ± 0.224 g%.

**Q.** And the “Body Weight Change” value [7]?
**A.** The value was 46.0 g and 38.3 g and 37.4 g and 36.7 g.

**Q.** And the “Liver Weight” value [7]?
**A.** Its value is 16.7977 g and 16.8117 g and 16.3850 g and 18.5738 g.

**Q.** What about the “Relative Liver Weight” value [7] of the same molecule?
**A.** The value was 5.241 g% and 5.318 g% and 5.059 g% and 5.544 g%.

**Q.** What about the “Absolute Liver Weight” value [8] of the same molecule?
**A.** The value was 17.1421 ± 0.9748 g.

**Q.** What about the “Body Weight Gain” value [8] of the same molecule?
**A.** The value was 39.6 ± 4.3 g.

**Q.** What about the “Relative Liver Weight” value [8] of the same molecule?
**A.** Its value is 5.291 ± 0.201 g%.

**Q.** And the “Body Weight Change” value [9]?
**A.** Its value is 21.5 g and 10.9 g and 8.5 g and 8.3 g.

**Q.** What about the “Liver Weight” value [9] of the same molecule?
**A.** Its value is 12.3341 g and 12.8755 g and 12.0585 g and 12.4504 g.

**Q.** And the “Relative Liver Weight” value [9]?
**A.** The value was 5.372 g% and 5.236 g% and 5.345 g% and 5.231 g%.

**Q.** What about the “Absolute Liver Weight” value [10] of the same molecule?
**A.** Its value is 12.4296 ± 0.3397 g.

**Q.** What about the “Body Weight Gain” value [10] of the same molecule?
**A.** The value was 12.3 ± 6.2 g.

**Q.** What about the “Relative Liver Weight” value [10] of the same molecule?
**A.** The value was 5.296 ± 0.073 g%.

**Q.** And the “Body Weight Change” value [11]?
**A.** Its value is 37.5 g and 45.8 g and 38.2 g and 34.6 g.

**Q.** And the “Liver Weight” value [11]?
**A.** The value was 17.9851 g and 19.2395 g and 20.9175 g and 18.7875 g.

**Q.** What about the “Relative Liver Weight” value [11] of the same molecule?
**A.** Its value is 5.558 g% and 5.913 g% and 6.285 g% and 5.910 g%.

**Q.** What about the “Absolute Liver Weight” value [12] of the same molecule?
**A.** Its value is 19.2324 ± 1.2374 g.

**Q.** What about the “Body Weight Gain” value [12] of the same molecule?
**A.** Its value is 39.0 ± 4.8 g.

**Q.** And the “Relative Liver Weight” value [12]?
**A.** Its value is 5.916 ± 0.297 g%.

**Q.** And the “Body Weight Change” value [13]?
**A.** The value was -11.8 g and -21.3 g and -2.2 g and -35.7 g.

**Q.** What about the “Liver Weight” value [13] of the same molecule?
**A.** Its value is 10.2774 g and 9.4969 g and 12.9764 g and 9.4275 g.

**Q.** What about the “Relative Liver Weight” value [13] of the same molecule?
**A.** The value was 4.807 g% and 5.025 g% and 6.242 g% and 5.243 g%.

**Q.** What about the “Absolute Liver Weight” value [14] of the same molecule?
**A.** Its value is 10.5446 ± 1.6664 g.

**Q.** What about the “Body Weight Gain” value [14] of the same molecule?
**A.** Its value is -17.8 ± 14.3 g.

**Q.** And the “Relative Liver Weight” value [14]?
**A.** The value was 5.329 ± 0.634 g%.

**Q.** And the “Body Weight Change” value [15]?
**A.** Its value is 27.5 g and 43.2 g and 31.7 g and 24.7 g.

**Q.** What about the “Liver Weight” value [15] of the same molecule?
**A.** The value was 19.3187 g and 25.7576 g and 22.4062 g and 22.3377 g.

**Q.** And the “Relative Liver Weight” value [15]?
**A.** Its value is 6.254 g% and 7.468 g% and 6.965 g% and 7.243 g%.

**Q.** What about the “Absolute Liver Weight” value [16] of the same molecule?
**A.** The value was 22.4551 ± 2.6306 g.

**Q.** What about the “Body Weight Gain” value [16] of the same molecule?
**A.** The value was 31.8 ± 8.1 g.

**Q.** And the “Relative Liver Weight” value [16]?
**A.** The value was 6.983 ± 0.527 g%.

**Q.** And the “Body Weight Change” value [17]?
**A.** Its value is -62.7 g and -52.1 g and -49.6 g and -56.3 g.

**Q.** And the “Liver Weight” value [17]?
**A.** Its value is 9.7114 g and 9.8972 g and 9.1738 g and 9.9260 g.

**Q.** And the “Relative Liver Weight” value [17]?
**A.** Its value is 6.002 g% and 5.659 g% and 5.567 g% and 5.958 g%.

**Q.** And the “Absolute Liver Weight” value (17 mg/kg/day, F, mean ± SD n=4)?
**A.** The value was 9.6771 ± 0.3488 g.

**Q.** What about the “Body Weight Gain” value (17 mg/kg/day, F, mean ± SD n=4) of the same molecule?
**A.** The value was -55.2 ± 5.7 g.

**Q.** And the “Relative Liver Weight” value (17 mg/kg/day, F, mean ± SD n=4)?
**A.** The value was 5.796 ± 0.216 g%.

**Q.** What about the “Body Weight Change” value [18] of the same molecule?
**A.** The value was -36.3 g and -50.7 g and -59.7 g and -59.2 g.

**Q.** And the “Liver Weight” value [18]?
**A.** The value was 13.4969 g and 13.8697 g and 12.4995 g and 13.1122 g.

**Q.** And the “Relative Liver Weight” value [18]?
**A.** The value was 5.386 g% and 5.593 g% and 5.511 g% and 5.909 g%.

**Q.** What about the “Absolute Liver Weight” value (17 mg/kg/day, M, mean ± SD n=4) of the same molecule?
**A.** The value was 13.2446 ± 0.5851 g.

**Q.** What about the “Body Weight Gain” value (17 mg/kg/day, M, mean ± SD n=4) of the same molecule?
**A.** The value was -51.5 ± 10.9 g.

**Q.** And the “Relative Liver Weight” value (17 mg/kg/day, M, mean ± SD n=4)?
**A.** Its value is 5.600 ± 0.223 g%.

**Q.** And the Abnormal clinical observations (female rats, 6.3 mg/kg/day dose group)?
**A.** The Abnormal clinical observations was “piloerection and thinness”.

**Q.** What about the “Abnormal clinical observations (in addition)” value (female rats, 17 mg/kg/day dose group) of the same molecule?
**A.** The value was “coldness to touch and hunching”.

**Q.** What about the “Abnormal clinical observations (alongside previous signs)” value (female rats, 45.9 mg/kg/day) of the same molecule?
**A.** Its value is “Abnormal breathing”.

**Q.** What about the Abnormal clinical observations (female rats, 124 mg/kg/day) of the same molecule?
**A.** Its Abnormal clinical observations is “decreased movement and lethargy”.

**Q.** And the Abnormal clinical observations (male rats, 17 and 45.9 mg/kg/day dose groups)?
**A.** Its Abnormal clinical observations is “lethargy, piloerection, thinness, hunching, coldness to touch, abnormal breathing, and decreased movement”.
